Results from US20170253607A1, “LONG-ACTING HIV PROTEASE INHIBITOR” (Shionogi & Co., Ltd., priority 2014, published 2017).

Biological target: HIV-1 PR (Human immunodeficiency virus type 1 group M subtype B, UniProt P04585)
Experiment: HIV-protease inhibitory activity assay (FRET peptide substrate)
Assay type: biochemical
Settings: Test Example 1
Summary of the method: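 HIV-1 PR (0.83 ng) preincubated with compounds 20 min at room temperature in 0.1 mol/L NaAc, 0.5 mol/L NaCl, 1 mmol/L EDTA, 1 mmol/L DTT, 0.05% Tween 20, pH 4.8. Cleavage of HiLyte Fluor 488/QXL 520 FRET peptide (2 μmol/L) read after 60 minutes at 485/535 nm; IC50 from four-parameter logistic fit.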

Compound | IC50 [nM]
COc1ccc(S(=O)(=O)N(CC(C)C)CC(O)C(Cc2ccc(N(C)CC3=C(c4sc5c(c4C(=O)O)CC(C)(C)CC5)CCC(F)(F)C3)cc2)NC(=O)OC2COC3(C)OCCC23)cc1 (centres unmarked) [Compound I-706] | 6.62
COc1ccc(S(=O)(=O)N(CC(C)C)CC(O)C(Cc2ccc(OCc3ccccc3-c3ncc4c(c3C(=O)O)CC(C)(C)CC4)cc2)NC(=O)OC2COC3(C)OCCC23)cc1 (centres unmarked) [Compound I-251] | 2.3
COc1ccc(S(=O)(=O)N(CC(C)C)CC(O)C(Cc2ccc(-c3ccccc3-c3sc4c(c3C(=O)O)CC(C)(C)CC4)cc2)NC(=O)OC2COC3(C)OCCC23)cc1 (centres unmarked) [Compound I-193] | 3.48
COc1ccc(S(=O)(=O)N(CC(C)C)CC(O)C(Cc2ccc(CNC(=O)c3cc(-c4ccc(F)cc4F)ccc3O)cc2)NC(=O)OC2COC3OCCC23)cc1 (centres unmarked) [Compound I-817] | 1.56
COc1ccc(S(=O)(=O)N(CC(C)C)CC(O)C(Cc2ccc(N3C(=O)c4cccc(-c5sc6c(c5C(=O)O)CC(C)(C)CC6)c4C3=O)cc2)NC(=O)OC2COC3(C)OCCC23)cc1 (centres unmarked) [Compound I-620] | 2.22
COc1ccc(S(=O)(=O)N(CC(C)C)CC(O)C(Cc2ccc(NCc3c(-c4sc5c(c4C(=O)O)CC(C)(C)CC5)ccc(F)c3F)cc2)NC(=O)OC2COC3(C)OCCC23)cc1 (centres unmarked) [Compound I-279] | 1.6
COc1ccc(S(=O)(=O)N(CC(C)C)CC(O)C(Cc2ccc(Oc3ccc(-c4sc5c(c4C(=O)O)CC(C)(C)CC5)cc3)cc2)NC(=O)OC2COC3(C)OCCC23)cc1 (centres unmarked) [Compound I-133] | 1.53
COc1ccc(S(=O)(=O)N(CC(C)C)CC(O)C(Cc2ccc(NCc3cc(C)ccc3NC(=O)c3sc4c(c3C(=O)O)CC(C)(C)CC4)cc2)NC(=O)OC2COC3(C)OCCC23)cc1 (centres unmarked) [Compound I-610] | 2.16
CC(C)CN(CC(O)C(Cc1ccc(OCc2ccccc2-c2sc3c(c2C(=O)O)CC(C)(C)CC3)cc1)NC(=O)OC1COC2(C)OCCC12)S(=O)(=O)c1ccc2nc(N(C)CCc3ccccc3)sc2c1 (centres unmarked) [Compound I-794] | 38.4
COc1ccc(S(=O)(=O)N(CC(C)C)C[C@@H](O)[C@H](Cc2ccccc2)NC(=O)O[C@H]2CO[C@@]3(CNC(=O)OCCCc4sc5c(c4C(=O)O)CC(C)(C)CC5)OCC[C@@H]23)cc1 [Compound I-34] | 1.28
COc1ccc(S(=O)(=O)N(CC(C)C)CC(O)C(Cc2ccc(N(C)CC3CCCCC3C(=O)Nc3sc4c(c3C(=O)O)CC(C)(C)CC4)cc2)NC(=O)OC2COC3(C)OCCC23)cc1 (centres unmarked) [Compound I-622] | 3.71
COc1ccc(S(=O)(=O)N(CC(C)C)C[C@@H](O)[C@H](Cc2ccc(OCc3ccccc3-c3sc(-c4ccccc4)nc3C(=O)O)cc2)NC(=O)O[C@H]2CO[C@H]3OCC[C@H]32)cc1 [Compound I-3] | 1.02
COc1ccc(S(=O)(=O)N(CC(C)C)C[C@@H](O)[C@H](Cc2ccccc2)NC(=O)O[C@H]2CO[C@@]3(CNC(=O)/C=C/c4sc5c(c4C(=O)O)CC(C)(C)CC5)OCC[C@@H]23)cc1 [Compound I-31] | 0.73
COc1ccc(S(=O)(=O)N(CC(C)C)CC(O)C(Cc2ccc(OC3CCN(c4ccc(C#N)cc4-c4sc5c(c4C(=O)O)CC(C)(C)CC5)CC3)cc2)NC(=O)OC2COC3(C)OCCC23)cc1 (centres unmarked) [Compound I-201] | 10.2
COc1ccc(S(=O)(=O)N(CC(C)C)CC(O)C(Cc2ccc(N(C)Cc3cocc3-c3sc4c(c3C(=O)O)CC(C)(C)CC4)cc2)NC(=O)OC2COC3(C)OCCC23)cc1 (centres unmarked) [Compound I-570] | 1.87
CC(C)CN(CC(O)C(Cc1ccc(OC(C(=O)O)c2ccc(-c3ccc(F)cc3F)cc2)cc1)NC(=O)OC1COC2(C)OCCC12)S(=O)(=O)c1ccc2ncsc2c1 (centres unmarked) [Compound I-154] | 1.87
COc1ccc(S(=O)(=O)N(CC(C)C)CC(O)C(Cc2ccc(NCCOc3ccc(-c4sc5c(c4C(=O)O)CC(C)(C)CC5)c(C)c3)cc2)NC(=O)OC2COC3(C)OCCC23)cc1 (centres unmarked) [Compound I-518] | 5.63
COc1ccc(S(=O)(=O)N(CC(C)C)CC(O)C(Cc2ccc(N(C)Cc3cc(N4CCCCC4=O)ccc3-c3sc4c(c3C(=O)O)CC(C)(C)CC4)cc2)NC(=O)OC2COC3(C)OCCC23)cc1 (centres unmarked) [Compound I-731] | 1.96
COc1ccc(S(=O)(=O)N(CC(C)C)CC(O)C(Cc2ccc(N(C)CC3CCCCC3c3sc4c(c3C(=O)O)CC(C)(C)CC4)cc2)NC(=O)OC2COC3(C)OCCC23)cc1 (centres unmarked) [Compound I-359] | 3.77
COc1ccc(S(=O)(=O)N(CC(C)C)C[C@@H](O)[C@H](Cc2ccc(OCc3ccc(-c4ccc(F)cc4F)cc3-c3nnn[nH]3)cc2)NC(=O)O[C@H]2CO[C@@]3(C)OCC[C@@H]23)cc1 [Compound I-22] | 0.99
CC(C)CN(CC(O)C(Cc1ccc(OCc2ccccc2-c2sc3c(c2C(=O)O)CC(C)(C)CC3)cc1)NC(=O)OC1COC2(C)OCCC12)S(=O)(=O)c1ccc2nc(NC3CCN(C4CCCC4)CC3)sc2c1 (centres unmarked) [Compound I-792] | 25
CC(C)CN(CC(O)C(Cc1ccc(OCc2ccccc2-c2ccccc2C(=O)O)cc1)NC(=O)OC1COC2(C)OCCC12)S(=O)(=O)c1ccc2ncsc2c1 (centres unmarked) [Compound I-64] | 1.3

Compound | IC50 [nM]
COc1ccc(S(=O)(=O)N(CC(C)C)CC(O)C(Cc2ccc(OCc3ccccc3-c3sc4c(c3C(=O)O)CCC(=O)C4)cc2)NC(=O)OC2COC3OCCC23)cc1 (centres unmarked) [Compound I-833] | 1.54
COc1ccc(S(=O)(=O)N(CC(C)C)CC(O)C(Cc2ccc(NCc3ccc(N4CCCCC4)cc3-c3sc4c(c3C(=O)O)CC(C)(C)CC4)cc2)NC(=O)OC2COC3(C)OCCC23)cc1 (centres unmarked) [Compound I-677] | 2.32
COc1ccc(S(=O)(=O)N(CC(C)C)CC(O)C(Cc2ccc(OC3CCN(C(=O)Nc4ccc(Cl)cc4-c4sc5c(c4C(=O)O)CC(C)(C)CC5)C3)cc2)NC(=O)OC2COC3(C)OCCC23)cc1 (centres unmarked) [Compound I-244] | 2.01
COc1ccc(S(=O)(=O)N(CC(C)C)CC(O)C(Cc2ccc(NCc3ccccc3-c3c(C(=O)O)cnc4ccc(OC)cc34)cc2)NC(=O)OC2COC3(C)OCCC23)cc1 (centres unmarked) [Compound I-500] | 1.78
COc1ccc(S(=O)(=O)N(CC(C)C)CC(O)C(Cc2ccc(NCc3ccc4scc(C(=O)O)c4c3)cc2)NC(=O)OC2COC3(C)OCCC23)cc1 (centres unmarked) [Compound I-314] | 1.93
COc1ccc(S(=O)(=O)N(CC(C)C)CC(O)C(Cc2ccc(N(C)Cc3cccc(-c4sc5c(c4C(=O)O)CC(C)(C)CC5)n3)cc2)NC(=O)OC2COC3(C)OCCC23)cc1 (centres unmarked) [Compound I-494] | 1.46
COc1ccc(S(=O)(=O)N(CC(C)C)CC(O)C(Cc2ccc(OCc3ncccc3-c3ccccc3-c3sc4c(c3C(=O)O)CC(C)(C)CC4)cc2)NC(=O)OC2COC3(C)OCCC23)cc1 (centres unmarked) [Compound I-110] | 1.67
COc1ccc(S(=O)(=O)N(CC(C)C)CC(O)C(Cc2ccc(NCc3cnn4ccc(C(=O)Nc5sc6c(c5C(=O)O)CC(C)(C)CC6)nc34)cc2)NC(=O)OC2COC3(C)OCCC23)cc1 (centres unmarked) [Compound I-442] | 2.95
COc1ccc(S(=O)(=O)N(CC(C)C)CC(O)C(Cc2ccc(OCc3cccc(-c4ccc(F)cc4F)c3C(=O)O)cc2)NC(=O)OC2COC3(C)OCCC23)cc1 (centres unmarked) [Compound I-153] | 1.08
COc1ccc(S(=O)(=O)N(CC(C)C)CC(O)C(Cc2ccc(OC3CCC(c4sc5c(c4C(=O)O)CC(C)(C)CC5)CC3)cc2)NC(=O)OC2COC3(C)OCCC23)cc1 (centres unmarked) [Compound I-203] | 5.02
COc1ccc(S(=O)(=O)N(CC(C)C)CC(O)C(Cc2ccc(NCc3cc(Oc4ccccn4)ccc3-c3sc4c(c3C(=O)O)CC(C)(C)CC4)cc2)NC(=O)OC2COC3(C)OCCC23)cc1 (centres unmarked) [Compound I-685] | 2.98
COc1ccc(S(=O)(=O)N(CC(C)C)C[C@@H](O)[C@H](Cc2ccc(OCc3sc4ccccc4c3C(=O)O)cc2)NC(=O)O[C@H]2CO[C@@]3(C)OCC[C@@H]23)cc1 [Compound I-5] | 1.15
COc1ccc(S(=O)(=O)N(CC(C)C)CC(O)C(Cc2ccc(NCc3cc(OC)cc(-c4sc5c(c4C(=O)O)CC(C)(C)CC5)c3OC)cc2)NC(=O)OC2COC3(C)OCCC23)cc1 (centres unmarked) [Compound I-553] | 1.92
COc1ccc(S(=O)(=O)N(CC(C)C)CC(O)C(Cc2ccc(C(=O)N(C)Cc3ccccc3-c3sc4c(c3C(=O)O)CC(C)(C)CC4)cc2)NC(=O)OC2COC3(C)OCCC23)cc1 (centres unmarked) [Compound I-219] | 2.06
COc1ccc(S(=O)(=O)N(CC(C)C)CC(O)C(Cc2ccc(OCc3ccccc3-c3ccc(Cn4nc(C(=O)O)c5c4CCC(C)(C)C5)cc3)cc2)NC(=O)OC2COC3(C)OCCC23)cc1 (centres unmarked) [Compound I-213] | 1.76
COc1ccc(S(=O)(=O)N(CC(C)C)CC(O)C(Cc2ccc(NCc3cc4c(cc3-c3sc5c(c3C(=O)O)CC(C)(C)CC5)OCC(=O)N4)cc2)NC(=O)OC2COC3(C)OCCC23)cc1 (centres unmarked) [Compound I-754] | 2.49
COc1ccc(S(=O)(=O)N(CC(C)C)CC(O)C(Cc2ccc(NCc3cccc(C)c3C(=O)Nc3sc4c(c3C(=O)O)CC(C)(C)CC4)cc2)NC(=O)OC2COC3(C)OCCC23)cc1 (centres unmarked) [Compound I-718] | 3.97
COc1ccc(S(=O)(=O)N(CC(C)C)CC(O)C(Cc2ccc(N(C)Cc3nc(N4CCCCC4)sc3-c3sc4c(c3C(=O)O)CC(C)(C)CC4)cc2)NC(=O)OC2COC3(C)OCCC23)cc1 (centres unmarked) [Compound I-756] | 3.46
COc1ccc(S(=O)(=O)N(CC(C)C)CC(O)C(Cc2ccc(NCC3=C(c4sc5c(c4C(=O)O)CC(C)(C)CC5)CCC(F)(F)C3)cc2)NC(=O)OC2COC3OCCC23)cc1 (centres unmarked) [Compound I-880] | 4.7
COc1ccc(S(=O)(=O)N(CC(C)C)CC(O)C(Cc2ccc(NCc3ccccc3-c3ccc4c(c3C(=O)O)CC(C)(C)CC4)cc2)NC(=O)OC2COC3(C)OCCC23)cc1 (centres unmarked) [Compound I-392] | 2.4
CC=Cc1ccc(-c2sc3c(c2C(=O)O)CC(C)(C)CC3)c(CNc2ccc(CC(NC(=O)OC3COC4(C)OCCC34)C(O)CN(CC(C)C)S(=O)(=O)c3ccc(OC)cc3)cc2)c1 (centres unmarked) [Compound I-723] | 1.65
COc1ccc(S(=O)(=O)N(CC(C)C)CC(O)C(Cc2ccc(NCc3ccc(C(=O)Nc4sc5c(c4C(=O)O)CC(C)(C)CC5)o3)cc2)NC(=O)OC2COC3(C)OCCC23)cc1 (centres unmarked) [Compound I-438] | 2.55
